Counter-ions that a name gives are not always drawn.
Key:
[1] = test system: Coxsackie B3 virus; test: microbe, parasite or virus in culture; format: cell-based, Coxsackievirus B3 (CVB3, strain Nancy); conditions: 24 h, Coxsackie B3 virus (Nancy, original), viral yield reduction in Vero cells
[2] = in vitro; conditions: African green monkey; for CC50 at 24 h: Vero cells
Method: (§1) Permissive cells were seeded in 96-well plates in Eagle’s minimal essential medium (MEM) supplemented with 10% FBS. After 24 h, the medium was removed, and the wells were washed with saline. Compounds w [...

[3] = in vitro; conditions: dog
[4] = test system: ECHO30; test: Viral yield reduction assay, ECHO30; format: cell-based, ECHO30 (clinical isolate); conditions: ECHO30, RD cells
[5] = test system: HSV1; test: microbe, parasite or virus in culture; format: cell-based, herpes simplex virus type 1; conditions: Human alphaherpesvirus 1; HSV1, Vero cells, viral yield reduction
[6] = test system: CVB3 R; test: microbe, parasite or virus in culture; format: cell-based, Coxsackievirus B3 (Nancy strain), passaged with 1a; conditions: Enterovirus B, CVB3, Vero
[7] = test system: CVA16; test: Viral yield reduction assay, CVA16; format: cell-based, Coxsackievirus A16 (clinical isolate); conditions: CVA16, RD cells
[8] = test system: CVB3 virus; test: Transmission electron microscopy of CVB3-infected Vero cells; conditions: MOI 100, 100 µM 1a, 3 h, TEM
Method: Vero cells in 6-well plates were incubated with CVB3 virus, MOI = 100, at 4 °C for 1 h. Unbound virions were removed by washing the cells twice with cold MEM; a medium containing 100 µM of 1a was added. […] Cells were incubated for 3 h at 36 °C in 5% CO2. In wells with control virus, MEM without 1a was added. After incubation, cells were collected from the wells, transferred into tubes, and centrifuged at 2000× g for 15 min. Cell pellets were fixed with 1.5% glutaraldehyde in PBS overnight, followed by post-fixation with 1.5% OsO4 for 1 h and uranyl acetate for 45 min at room temperature. They were then dehydrated in graded acetone and embedded in Epon/Araldit resin (Serva Feinbiochemica, Heidelberg, Germany). Thin sections (90 nm) were stained with lead citrate and examined in a JEM-100S electron microscope (JEOL, Tokyo, Japan).

[9] = test system: CVB5; test: Viral yield reduction assay, CVB5; format: cell-based, Coxsackievirus B5 (clinical isolate); conditions: CVB5, Vero cells
[10] = test system: Vero cells; test: Cytotoxicity assay (MTT) in Vero cells
Method: as §1

[11] = Cytotoxicity assay (MTT) in RD cells; format: cell-based; conditions: human, 24 h incubation with compound only
[12] = test system: Influenza B/Florida/04/06; test: microbe, parasite or virus in culture; format: cell-based, influenza B virus (strain B/Florida/04/06, Yamagata lineage); conditions: MDCK
[13] = test system: Influenza A/Puerto Rico/8/34; test: Viral yield reduction assay, influenza A; format: cell-based, Influenza A virus (strain A/Puerto Rico/8/1934 (H1N1)); conditions: Influenza A virus, Influenza A/Puerto Rico/8/34, MDCK cells
[14] = in vitro; conditions: human
[15] = Antioxidant activity, DPPH assay; format: physicochemical; conditions: DPPH 200 μM in methanol, 30 min at 30 °C; vitamin C as reference; result in words
Method: Antioxidant activity was evaluated by spectrophotometric monitoring of the hydrogen transfer reaction with a stable chromogen radical, 2,2-diphenyl-1-picrylhydrazyl (DPPH, Sigma-Aldrich, St. Louis, MO, USA), using vitamin C (Vc) as described before. A solution of DPPH in methanol with a concentration of 200 μM was added to a solution of dihydrotetrazines in the same solvent (concentrations 5 to 50 μM). The reaction vessel (test tube) was wrapped in foil and kept for 30 min at 30 °C, and the optical density was measured at λ 517 nm (DPPH absorption maximum). The antioxidant activity (AO) was calculated by the formula AO = (1 − Atest/Acontr) × 100%, where Atest is the optical density of a solution containing a compound to be tested and DPPH, and Acontr is the optical density of a solution containing DPPH alone. The half-inhibitory concentration (IC50) corresponding to the reduction of the initial DPPH concentration by 50% was determined from the DPPH inhibition percentage plotted against concentrations of compounds 2 through 5 (Figure 1) using the OriginPro 8.5 program (OriginLab Corporation, Northampton, MA, USA) (Model DoseResp).

[16] = test system: CVB4; test: Time-of-addition assay; format: cell-based, Coxsackievirus B4 (CVB4, strain Powers); conditions: CVB4 in Vero cells, 1a 5 μg/mL; for Interval of addition with highest inhibitory activity: pleconaril 10 μg/mL, titer at 8 h
[17] = test system: CVB4 (strain Powers); test: Viral yield reduction assay, CVB4; format: cell-based, Coxsackievirus B4 (CVB4; conditions: Vero cells
[18] = test system: CVA24; test: Viral yield reduction assay, CVA24; format: cell-based, Coxsackievirus A24 (clinical isolate); conditions: CVA24, RD cells
[19] = test system: CVB4 Powers; test: Thermostability assay; parameters: species or system Coxsackievirus B4 (CVB4, strain Powers); conditions: compound 10 µg/mL, thermal gradient 37–55 °C for 2 min
Method: The thermostability assay was performed as described previously. The CVB4 strain was chosen because it is sensitive to the pleconaril used in this assay as a reference compound. The compound concentration used in the assay was selected according to the results of preliminary thermostability assays. Briefly, CVB4 Powers (10^4 TCID50) was pre-incubated with the compound (10 µg/mL), pleconaril (10 µg/mL), or an equal volume of MEM (virus control) for 30 min at +37 °C in sterile thin-walled 200 μl PCR-tubes (5 tubes per each treatment condition) in a BioRad CFX PCR-machine (BioRad Laboratories, Inc., Hercules, CA, USA). Then, a thermal gradient of 37–55 °C for 2 min, followed by rapid cooling to 4 °C, was applied. Subsequently, the infectious viral activities of the samples were quantified by end-point dilution assay.

[20] = test system: CVB3-WT and -R variants; test: Growth kinetics of CVB3 WT and R variants with and without 1a; format: cell-based, Coxsackievirus B3; conditions: Vero cells, MOI 0.001, 1a 7 ug/mL, up to 72 h
[21] = test system: Ad5; test: microbe, parasite or virus in culture; format: cell-based, human adenovirus type 5; conditions: Human mastadenovirus C, A549
[22] = test system: CVB3 WT; test: microbe, parasite or virus in culture; format: cell-based, Coxsackievirus B3 (Nancy strain), passaged without 1a; conditions: Enterovirus B, CVB3, Vero
[23] = test system: SARS-CoV-2; test: Viral yield reduction assay, SARS-CoV-2; format: cell-based, SARS-CoV-2 virus (Wuhan strain); conditions: Severe acute respiratory syndrome coronavirus 2, SARS-CoV-2, Vero cells
[24] = test system: RD cells; test: Cytotoxicity assay (MTT) in RD cells; format: cell-based; conditions: 24 h incubation with compound only

CCC1N(c2nc3ccccc3s2)N=C(c2ccccc2)NN1c1ccc(F)cc1 (stereo not shown) [Compound 3c]
IC50 ([1]; Enterovirus B, B3, Vero): 71.9 ± 6.4 µM | CC50 at 24 h [2]: 360 ± 41.7 µM

COc1ccc(N2NC(c3ccccc3)=NN(c3nc4ccccc4s3)C2C)cc1 (stereo not shown) [Compound 2b]
IC50 ([1]; Enterovirus B, B3, Vero): 24.1 ± 3.2 µM | CC50 at 24 h [2]: 2050 ± 198 µM

CC1N(c2nc3ccccc3s2)N=C(c2ccccc2)NN1c1ccc(Br)cc1 (stereo not shown) [Compound 2e]
IC50 ([1]; Enterovirus B, B3, Vero): > 69.1 µM | CC50 at 24 h [2]: 69.1 ± 5.9 µM

c1ccc(C2=NN(c3nc4ccccc4s3)CN(c3ccccc3)N2)cc1 [Compound 1a]
CC50 [3]: 850 ± 78.3 µM | IC50 [4]: 1.6 ± 0.4 µM | IC50 [5]: 46.3 ± 4.4 µM | IC50 [6]: 12.9 µM | IC50 ([7]; Enterovirus A): 0.8 ± 0.2 µM | Examined cells with no replication organelles visible [8]: 47 out of 49 | IC50 ([9]; Enterovirus B): 1.5 ± 0.3 µM | CC50 ([10]; SARS-CoV-2 row, 48 h or 24 h depending on virus life cycle, MTT): 656 ± 70.4 µM | IC50 [1]: 1.8 ± 0.3 µM | IC50 ([1]; Enterovirus B, B3, Vero): 2.7 µM | CC50 at 24 h [11]: 673 ± 60.1 µM | IC50 [12]: 40.5 ± 5.1 µM | IC50 [13]: 38.7 ± 2.9 µM | CC50 [14]: 501 ± 45.7 µM | Antioxidant activity (DPPH assay) [15]: most pronounced antioxidant activity | Inhibition of viral replication on late addition ([16]; added later than 6 h after adsorption of the virus): Inhibition of viral replication was not observed | Interval of addition with highest inhibitory activity [16]: from −2 to 4 h post-infection | IC50 ([17]; Enterovirus B): 1.7 ± 0.5 µM | IC50 ([18]; Enterovirus C): 0.9 ± 0.3 µM | Thermostabilizing effect on virion (infectious particles after heating) [19]: no infectious particles were detected when heated above 45 degrees | CC50 [2]: 451 ± 51.2 µM | CC50 at 24 h [2]: 620 ± 52.7 µM | Propagation of CVB3 strains in presence of 1a [20]: the resistant strain was able to effectively propagate in contrast to the wild-type virus | IC50 [21]: 43.1 ± 3.8 µM | IC50 [22]: 0.48 µM | IC50 [23]: 4.5 ± 1.2 µM

C=CC1N(c2nc3ccccc3s2)N=C(c2ccccc2)NN1c1ccc(Cl)cc1 (stereo not shown) [Compound 4c]
IC50 ([1]; Enterovirus B, B3, Vero): 27.9 ± 3.3 µM | CC50 at 24 h [2]: > 291 µM

CCC1N(c2nc3ccccc3s2)N=C(c2ccccc2)NN1c1ccc(OC)cc1 (stereo not shown) [Compound 3b]
IC50 ([1]; Enterovirus B, B3, Vero): 60.1 ± 7.2 µM | CC50 at 24 h [2]: 2330 ± 25.3 µM

C=CC1N(c2nc3ccccc3s2)N=C(c2ccccc2)NN1c1ccc(I)cc1 (stereo not shown) [Compound 4d]
IC50 ([1]; Enterovirus B, B3, Vero): 51.6 ± 6.4 µM | CC50 at 24 h [2]: 1530 ± 17.2 µM

Cc1cc(CCCOc2c(C)cc(-c3noc(C(F)(F)F)n3)cc2C)on1 [Pleconaril, reference compound]
IC50 ([1]; Enterovirus B, B3, Vero): 15.2 ± 1.6 µM | Interval of addition with highest inhibitory activity [16]: between −2 and 0 h | Thermostabilizing effect on virion (infectious particles after heating) [19]: had a thermostabilizing effect | CC50 at 24 h [2]: 656 ± 58.4 µM

COc1ccc(N2CN(c3nc4ccccc4s3)N=C(c3ccccc3)N2)cc1 [Compound 1b]
IC50 ([1]; Enterovirus B, B3, Vero): 5.4 ± 1.1 µM | Antioxidant activity (DPPH assay) [15]: most pronounced antioxidant activity | CC50 at 24 h [2]: > 1350 µM

CC1N(c2nc3ccccc3s2)N=C(c2ccccc2)NN1c1ccc(F)cc1 (stereo not shown) [Compound 2d]
IC50 ([1]; Enterovirus B, B3, Vero): > 49.6 µM | CC50 at 24 h [2]: 49.6 ± 3.7 µM

C=CC1N(c2nc3ccccc3s2)N=C(c2ccccc2)NN1c1ccc(OC)cc1 (stereo not shown) [Compound 4b]
IC50 ([1]; Enterovirus B, B3, Vero): > 117 µM | CC50 at 24 h [2]: > 293 µM

C=CC1N(c2nc3ccccc3s2)N=C(c2ccccc2)NN1c1ccccc1 (stereo not shown) [Compound 4a]
IC50 ([1]; Enterovirus B, B3, Vero): > 126 µM | CC50 at 24 h [2]: > 315 µM

CC1N(c2nc3ccccc3s2)N=C(c2ccccc2)NN1c1ccccc1 (stereo not shown) [Compound 2a]
IC50 ([1]; Enterovirus B, B3, Vero): 6.49 ± 0.8 µM | CC50 at 24 h [2]: > 325 µM

N=C(N)N [Guanidine hydrochloride, reference compound]
IC50 [4]: 126 ± 18.2 µM | IC50 [7]: 337 ± 28.3 µM | IC50 [9]: 474 ± 33.4 µM | CC50 ([10]; 24 h incubation with compound only, MTT (Table 2)): > 5240 µM | CC50 [24]: > 10500 µM | IC50 [17]: 496 ± 26.5 µM | IC50 [18]: 314 ± 20.1 µM

CCc1ccc(N2NC(c3ccccc3)=NN(c3nc4ccccc4s3)C2C)cc1 (stereo not shown) [Compound 2c]
IC50 ([1]; Enterovirus B, B3, Vero): > 121 µM | CC50 at 24 h [2]: > 303 µM

CCC1N(c2nc3ccccc3s2)N=C(c2ccccc2)NN1c1ccccc1 (stereo not shown) [Compound 3a]
IC50 ([1]; Enterovirus B, B3, Vero): > 125 µM | CC50 at 24 h [2]: > 313 µM

CCC1N(c2nc3ccccc3s2)N=C(c2ccccc2)NN1c1ccc(Br)cc1 (stereo not shown) [Compound 3e]
IC50 ([1]; Enterovirus B, B3, Vero): > 210 µM | CC50 at 24 h [2]: 946 ± 89.6 µM

Clc1ccc(N2CN(c3nc4ccccc4s3)N=C(c3ccccc3)N2)cc1 [Compound 1c]
IC50 ([1]; Enterovirus B, B3, Vero): 7.4 ± 2.2 µM | CC50 at 24 h [2]: 321 ± 28.2 µM

Brc1ccc(N2CN(c3nc4ccccc4s3)N=C(c3ccccc3)N2)cc1 [Compound 1d]
IC50 ([1]; Enterovirus B, B3, Vero): 6.2 ± 1.9 µM | CC50 at 24 h [2]: 886 ± 90.4 µM

Source: paper PMC11123948, “Leucoverdazyls as Novel Potent Inhibitors of Enterovirus Replication” (Pathogens, 2024)
